Values after ≈ are worked out from the molar mass of the structure shown. Where two headings read alike, the source gives them in different places.
Experiments:
[1] = tested on: Escherichia coli; assay: Broth assay for bio-enhancement of antibiotic killing, Gram-negative bacterium; conditions: cow urine distillate 1 μl/mL
Protocol: (§1) For this, the cells are treated with compound for 4 to 8 hours and then washed free of it by centrifugation and washing in sterile water. This was followed by treatment with antibiotic as in steps b to d.
(§2) In the next step of elucidation of the enhancer action, the applicants experimented with the killing activities of different antibiotics against the bacteria singly and in combination with the test component (cow urine distillate) following the method described above. […] In all the experiments the cow urine distillate concentration was kept at 1 μl/mL unless it is specifically mentioned.

[2] = tested on: Bacillus subtilis; assay: Broth assay for bio-enhancement of antibiotic killing, Gram-positive bacterium; conditions: cow urine distillate 1 μl/mL
Protocol: as §1, §2

[3] = tested on: Mycobacterium smegmatis; assay: Broth assay for bio-enhancement of antibiotic killing, Mycobacterium smegmatis; conditions: antibiotic 0.5 μg/ml; cow urine distillate 1 μl/mL
Protocol: as §1, §2

[4] = tested on: fungal strains; conditions: active fraction Gm-IV, where present, at 10 μg/ml
Protocol: (§3) The methodology followed by us for this screening included specifically designed bioassays as described below.
as §1
(§4) The Concentration of the Active Fraction is Kept at 10 μg/ml.

[5] = tested on: fungal strains; assay: organism not typed; conditions: read-out: Minimum inhibitory Concentration (MIC)
Protocol: as §3, §1, §4

[6] = tested on: oxyR mutant of bacterium Escherichia coli; type: cell-based
[7] = Bioavailability test through biological membrane (U-tube); type: in vitro ADME, goat; conditions: Rifampicin 1 mg/ml, Fraction Gm-IV (where present) 1.0 μg/ml
[8] = tested on: MCF-7 (Breast cancer cell line); type: cell-based; conditions: for Final titre of viable cells upon treatment with taxol alone / Final titre of viable cells upon treatment with taxol + cow urine distillate: MCF-7, count after 36 hours; for Final titre of viable cells upon treatment with taxol + cow urine distillate: cow urine distillate 1 μl/ml

## CC1(C)S[C@@H]2[C@H](NC(=O)[C@H](N)c3ccccc3)C(=O)N2[C@H]1C(=O)O [Ampicillin]
[1]; antibiotic 4 μg/ml
  Fold enhancement in antibiotic activity: 1.85
[1]; antibiotic 6 μg/ml
  Fold enhancement in antibiotic activity: 4.50
[1]; antibiotic 8 μg/ml
  Fold enhancement in antibiotic activity: 5.00
[2]; antibiotic 0.1 μg/ml
  Fold enhancement in antibiotic activity: 3.3
[2]; antibiotic 0.5 μg/ml
  Fold enhancement in antibiotic activity: 3.0
[3]
  Fold enhancement in antibiotic activity: 11.6

## Clc1ccccc1C(c1ccccc1)(c1ccccc1)n1ccnc1 [Clotrimazol]
[4]
  Fold enhancement: 0.0
[5]
  MIC: 4.4 mg/L (≈ 12.8 µM)

## NNC(=O)c1ccncc1 [Isoniazid]
[6]
  enhancement action of the distillate for INH: enhancement action

## CO[C@H]1/C=C/O[C@@]2(C)Oc3c(C)c(O)c4c(O)c(c(/C=N/N5CCN(C)CC5)c(O)c4c3C2=O)NC(=O)/C(C)=C\C=C\[C@H](C)[C@H](O)[C@@H](C)[C@@H](O)[C@@H](C)[C@H](OC(C)=O)[C@@H]1C [Rifampicin]
[7]; A340, after 1 hr
  OD measured as Absorbance across the membrane in receiving tube: 0.0097
[7]; A340, after 2 hr
  OD measured as Absorbance across the membrane in receiving tube: 0.0214
[7]; A340, after 4 hr
  OD measured as Absorbance across the membrane in receiving tube: 0.0771
[7]; A340, after 5 hr
  OD measured as Absorbance across the membrane in receiving tube: 0.0858
[7]; A340, after 6 hr
  OD measured as Absorbance across the membrane in receiving tube: 0.0910
[7]; A475, after 1 hr
  OD measured as Absorbance across the membrane in receiving tube: 0.0177
[7]; A475, after 2 hr
  OD measured as Absorbance across the membrane in receiving tube: 0.0284
[7]; A475, after 3 hr
  OD measured as Absorbance across the membrane in receiving tube: 0.0309
[7]; A475, after 4 hr
  OD measured as Absorbance across the membrane in receiving tube: 0.0412
[7]; A475, after 5 hr
  OD measured as Absorbance across the membrane in receiving tube: 0.0484
[7]; A475, after 6 hr
  OD measured as Absorbance across the membrane in receiving tube: 0.0496

## CC(=O)O[C@H]1C(=O)[C@@]2(C)[C@H]([C@H](OC(=O)c3ccccc3)[C@]3(O)C[C@H](OC(=O)[C@H](O)[C@@H](NC(=O)c4ccccc4)c4ccccc4)C(C)=C1C3(C)C)[C@]1(OC(C)=O)CO[C@@H]1C[C@@H]2O [Taxol, Paclitaxel]
[8]; Taxol 0.001 μg/ml
  Final titre of viable cells upon treatment with taxol alone: 0.059 × 10^6
  Final titre of viable cells upon treatment with taxol + cow urine distillate: 0.039 × 10^6
[8]; Taxol 0.005 μg/ml
  Final titre of viable cells upon treatment with taxol alone: 0.042 × 10^6
  Final titre of viable cells upon treatment with taxol + cow urine distillate: 0.032 × 10^6
[8]; Taxol 0.01 μg/ml
  Final titre of viable cells upon treatment with taxol alone: 0.036 × 10^6
  Final titre of viable cells upon treatment with taxol + cow urine distillate: 0.012 × 10^6
[8]; cancerous cell line MCF-7
  killing action of Taxol with cow urine distillate: increased
[8]; distillate at 1 μl/ml
  enhancement in the activity of taxol by the distillate: at least 5 folds

Source: patent US7235262B2, “Use of bioactive fraction from cow urine distillate (‘Go-mutra’) as a bio-enhancer of anti-infective, anti-cancer agents and nutrients” (Council of Scientific and Industrial Research, priority 2000, dated 2007)
